# According to patent publication US12599592B2, “Therapeutic small molecules for treatment of pulmonary hypertension” (UNIVERSITY OF PITTSBURGH—OF THE COMMONWEALTH SYSTEM OF …, priority 2020, dated 2026):
# Where a SMILES comes first, the peptide text is derived from it. The star is where a group is joined. Cbz = O=C(OCc1ccccc1)*
# Tests used:
# [1] = system: Cluster 15 (C15) genes incl. LGALS8; assay: RT-qPCR of Cluster 15 gene expression in PAECs; format: cell-based, human; conditions: PAECs + IL-1β; for IL-1β-induced expression changes in Cluster 15 members SLC9A3R1, LGALS3: 500 nM
# Description: (§1) Human recombinant galectin-8 (1305-GA-050) was purchased from R&D Systems and was used at a working concentration of 30 nM.
# (§2) RT-qPCR analysis: Cells were lysis in 1 ml of QiaZol reagent (Qiagen). Total RNA content was extracted using the RNeasy kit (Qiagen), according to the manufacturer's instructions. Total RNA concentration was determined using a BioTek Synergy multimode plate reader. Messenger RNAs were reverse transcribed to generate cDNA using the Multiscript RT kit (Thermo Fisher Scientific). cDNA for specific gene targets was amplified and quantified via fluorescently-labeled Taqman primer sets and Taqman fast advanced master mix (Thermo Fisher Scientific) using an Applied Biosystems QuantStudio 6 Flex Real-Time PCR System.
# PAECs [2] = assay: Mitochondrial superoxide by MitoSOX Red flow cytometry in PAECs; format: cell-based, human
# Source text: (§3) Cell culture: Primary human pulmonary artery endothelial cells (PAECs) and human pulmonary artery smooth muscle cells (PASMCs) were purchased from Lonza (302-05A, CC-2581). Of note, the same two male donors were the source of all PAECs in the experiments shown. Two additional male donors were the source for all PASMCs in the experiments shown. Cells from these and any donors were characterized by flow cytometry for consistent expression of cell surface markers and by RNA (RT-qPCR) analysis of endothelial and smooth muscle gene expression. PAECs were cultured in EGM-2 media (CC-3121) along with supplements (CC-4133), and PASMCs were cultured in SmGM-2 culture media (Lonza, CC-3182) at 5% CO2 in a humidified incubator.
# as §1
# (§4) For hypoxia exposure, cells were plated in 6-well cell culture plates at 1×10^5 cells/well, grown for 24 hr and placed into a normobaric hypoxia chamber (1% O2) for 24 h under specific treatment conditions. Namely, for I-BET and siLGALS8 exposures, cells were either pre-treated with I-BET/vehicle control (VC) or transfected with siLgals8/Scr for 24 h. Then, they were cultured in basal media at 1% 02. After 24 h, caspase activity and mitochondrial superoxide levels were quantified. To detect activation status of pSTAT1/STAT1 by immunoblot, cells were exposed to 8 h of hypoxia.
# Flow cytometry detection of mitochondrial superoxide: For measuring mitochondrial superoxide, cells were incubated with 5 μM of MitoSOX Red mitochondrial superoxide indicator (Thermo Fisher Scientific) for 10 min in 37° C. CO2 incubator. Next, cells were washed with 1×PBS, trypsinized, and fluorescence (488 nm/580 nm) was measured on flow analyzer (BD LSR FORTESSA or BD LSRII) using BD […] software.
# PAECs [3] = assay: Apoptosis by caspase-3/7 activity in PAECs; format: cell-based, human
# Source text: as §3, §1, §4
# (§5) In IL-6/sIL-6R+hypoxia experiments, a human recombinant IL-6/IL-6R alpha protein chimera (25 ng/ml, Millipore) was administered at 70-80% confluency for 48 h in complete media along with vehicle control (DMSO, Sigma-41639). BRD2889 (1 uM) vs. vehicle control were added, as indicated, and placed into a hypoxia chamber for 24 h. The hypoxia chamber (modular incubator chamber) was obtained from Billups-Rothenberg Inc. (Del Mar, Calif) and placed in regulated CO2 incubator at 37° C.
# Cellular apoptosis: Caspase-3/7 activity was quantified using the Caspase-Glo 3/7 Assay (Promega), according to manufacturer's instructions. Caspase-3/7 activity was normalized to total protein content determined by BCA method (Thermo Fisher Scientific).
# LGALS8 = assay: Immunoblot and densitometry of LGALS8 isoforms in PAECs; format: cell-based, human; conditions: PAECs + IL-1β
# Description: as §1
# (§6) Immunoblot and densitometry: Cells were lysed in RIPA buffer (Sigma) along with 1× protease inhibitor cocktail (Sigma). Protein lysate was resolved by gradient 4%-15% SDS-PAGE gels and transferred onto a 0.2 μm PVDF membrane (Bio-Rad). Membranes were blocked in 5% non-fat milk in 1×PBST buffer for one hour at room temperature. Later, they were incubated in the presence of the primary antibody overnight at 4° C. and then appropriate HRP-conjugated secondary antibodies (Life Technologies). The following antibodies were used: human LGALS8 (AF1305, RnD Systems), mouse/rat Lgals8 (ab69631, Abcam), pSTAT1 (ab29045, Abcam) and STAT1 (ab47425, Abcam), GSTP1 (ab153949, Abcam), ISCU (14812-1-AP, Prointech), Glutathione (ab19534, Abcam), HIF2A (NB100-122, Novous), α-Tubulin (CP06, Millipore sigma), and ACTB (sc-47778, Santa Cruz). The immunoreactive bands were visualized with the Chemidoc XRS+system (Bio-Rad) using SuperSignal West Femto chemiluminescent substrates (Thermo Fisher Scientific). The images were later quantified using AlphaEaseFC software (Alpha Innotech).
# PAECs [4] = assay: Global transcriptome microarray in PAECs; format: cell-based, human; conditions: IL-1β +/- I-BET762, microarray
# Source text: The gene expression was normalized with Robust Multiarray Analysis (RMA). For BRD2889, the same approach was employed using Affymetrix Clariom S array on RNA isolated from PAECs treated with BRD2889 or vehicle and subjected to either hypoxia or normoxia. Differentially expressed genes were defined as any gene for which the FDR adjusted p-value was below 0.05 (n=3/grp). Reversed genes were further defined as those genes that were differentially expressed in both (hypoxia versus normoxia) and in (hypoxia+BRD2889 versus hypoxia)+vehicle as well as were regulated in opposite directions. Similarly, for I-BET that were differentially expressed in IL-1β+VC versus control and IL-1β+I-BET versus IL-1β+VC and were regulated in opposite directions. The data for both I-BET and BRD2889 have been submitted to the NCBI Gene Expression Omnibus with accession numbers GSE125508 and GSE160255, respectively.
# Cluster 15 (C15) genes = assay: RT-qPCR of Cluster 15 gene expression in PASMCs; format: cell-based, human; conditions: PASMCs + IL-1β
# Source text: as §3, §1
# as §2, with “Total RNA content was extracted using the RNeasy kit (Qiagen), according to the manufacturer's instructions.” left out
# [5] = system: SU5416-hypoxic pulmonary arterial hypertension rats; assay: SU5416-hypoxia pulmonary arterial hypertension rat model; format: in vivo, Sprague-Dawley rats
# Description: Briefly, 10 week old male Sprague-Dawley rats were injected i.p. with 20 mg/kg of SU5416 (Sigma), placed in normobaric hypoxia (10% O2) for 3 weeks and then transferred to normoxia for 2 weeks. During hypoxic exposure, chambers were opened twice a week for cleaning and replenishment of food and water. […] For BRD2889 vs. vehicle control dosing, i.p. injections every 5 days (5 mg/kg) were administered during the final two weeks of normoxia. Oxygen concentrations were continuously monitored with blood gas analyzers.
# Following euthanasia, right ventricle/[left ventricle+septum]
# Measurement of GST activity: The GST activity from lung tissue and PAECs was assayed using GST assay kit (Cayman, MI, USA) per the manufacturer's instructions.
# Rodent echocardiography: Echocardiography was performed using a 15-45 MHz transthoracic transducer and a Visual Sonics Vevo 3100 system (Fujifilm). Inhaled isoflurane anesthesia was used at 2% in 100% O2 during positioning and hair removal and then decreased to isoflurane 0.8% during imaging.
# chronically hypoxic mice = assay: Hypoxia-induced pulmonary hypertension mouse model
# Source text: Animal models: For the hypoxia-induced pulmonary hypertension mice, male C57BL/6J mice (8 weeks old) (RRID:IMSR_JAX:000664) were purchased from Jackson laboratory and acclimatized for 3-4 days in this facility. Subsequently, mice scheduled for normoxic vs. hypoxic exposure were maintained in either normoxia or a normobaric hypoxia chamber for 1 or 3 weeks (OxyCycler, Biospherix Ltd.), where consistent exposure to 10% oxygen and control for temperature and humidity were possible. For testing the activity of I-BET in hypoxia-induced pulmonary hypertension mice, three experimental groups—normoxia+VC (vehicle control), hypoxia+VC (vehicle control), and hypoxia+I-BET were used.
# I-BET was dissolved in DMSO at 100× concentration and then made into a working solution in 20% PEG400 and 80% 1×PBS. BRD2889 was made into a working solution of 2.5% DMSO.
# Male and female 8 week old Lgals8−/− mice were exposed to hypoxia for 3 weeks. Littermates were used as wildtype (WT) control when comparing with knockout mice.
# Immunofluorescent staining: Cryostat sections were cut from OCT-embedded lung tissues at 5-10 μm and mounted on gelatin-coated histological slides. Slides were thawed at room temperature for 10-20 min and rehydrated in wash buffer for 10 minutes. All sections were blocked in 10% donkey serum and exposed to primary antibody and Alexa 488, 568 and 647-conjugated secondary antibodies (Thermo Fisher Scientific). The following primary antibodies were used: Lgals8 (Ab69631, Abcam; 1/200), IL-1β (ab9722, Abcam; 1/200), GSTP1 (ab153949, Abcam; 1:100), ISCU (14812-1-AP, Proteintech; 1:100), cleaved caspase 3 (cs-9661, Cell Signaling; 1/400), α-SMA (F3777, Sigma; 1/200) and CD31 (ab7388, Abcam; 1/200). Images were obtained using Nikon A1 confocal microscope with 40× objective. Small pulmonary vessels (10 vessels/section) that were not associated with bronchial airways were selected for analysis. Intensity of staining was quantified using ImageJ software (NIH). Degree of pulmonary arteriolar muscularization was assessed in OCT lung sections stained for α-SMA by calculation of the proportion of fully and partially muscularized peripheral (<100 μm diameter) pulmonary arteriole to total peripheral pulmonary arterioles (Bertero T et al. J Clin Invest. 2014, 124, 3514-3528).
# ISCU = assay: Immunoblot of ISCU and GSTP1 in PAECs; format: cell-based, human; conditions: hypoxic PAECs, MG132 5 mM, 2 h
# Description: as §4, §5
# (§7) Protein stability assay: The proteasome inhibitor MG132 (M7449, Sigma) was stored at −20° C. at a concentration of 10 mM diluted in dimethyl sulfoxide (DMSO). PAECs were exposed to MG132 ([…]) vs. DMSO vehicle control for 2 hr under hypoxia, prior to harvesting of cellular lysate for immunoblotting.
# as §6
# glutathionylated ISCU = assay: ISCU glutathionylation by immunoprecipitation and immunoblot in PAECs; format: cell-based, human; conditions: hypoxic PAECs, MG132 5 mM, 2 h
# Description: as §7
# Immunoblot and densitometry: Cells were lysed in RIPA buffer (Sigma) along with 1× protease inhibitor cocktail (Sigma). Protein lysate was resolved by gradient 4%-15% SDS-PAGE gels and transferred onto a 0.2 μm PVDF membrane (Bio-Rad). Membranes were blocked in 5% non-fat milk in 1×PBST buffer for one hour at room temperature. Later, they were incubated in the presence of the primary antibody overnight at 4° C. and then appropriate HRP-conjugated secondary antibodies (Life Technologies). […] The images were later quantified using AlphaEaseFC software (Alpha Innotech).
# Immunoprecipitation: PAECs were transfected with the indicated combinations of siRNAs by Lipofectamine 2000 (Thermo Fisher Scientific) according to the manufacturer's instructions and/or treated with BRD2889 ([…], 24 h). […] After extensive washing, the immunoprecipitated proteins were analyzed by immunoblotting with the indicated antibodies.
# [6] = target: glutathione S-transferase pi 1 (GSTP1) (Homo sapiens, UniProt P09211); conditions: literature report; cited from earlier work
# Chain of glutathione S-transferase pi 1 (GSTP1) (P09211 whole entry, species assumed): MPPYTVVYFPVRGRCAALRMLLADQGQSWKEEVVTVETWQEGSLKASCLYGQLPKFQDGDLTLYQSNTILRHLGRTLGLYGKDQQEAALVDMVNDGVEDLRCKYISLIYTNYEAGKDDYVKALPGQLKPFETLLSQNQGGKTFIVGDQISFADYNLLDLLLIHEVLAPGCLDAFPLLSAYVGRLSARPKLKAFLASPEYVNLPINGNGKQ
# [7] = system: normal, non-transformed cells; liver and kidney; conditions: literature report; cited from earlier work
# [8] = PAECs + IL-1β 10 ng/ml 48 h, I-BET762 500 nM vs vehicle
# [9] = PAECs, hypoxia 1% O2 24 h, I-BET pre-treatment
# [10] = I-BET762 30 mg/kg i.p. daily, Days 21-35
# [11] = I-BET762 30 mg/kg daily oral gavage, chronic hypoxia
# [12] = IL-1β-exposed (48 h) PAECs treated with I-BET and rhGal8 (24 h)
# [13] = PAECs, rhGal8 alone (30 nM, 24 h)
molecule,measurement,setting,value
COc1cc2c(cc1-c1c(C)noc1C)ncc1[nH]c(=O)n([C@H](C)c3ccccn3)c12 [I-BET151],"IL-1β-induced expression changes in Cluster 15 members SLC9A3R1, LGALS3",[1],reversed
CCNC(=O)C[C@@H]1N=C(c2ccc(Cl)cc2)c2cc(OC)ccc2-n2c(C)nnc21 [I-BET762],mitochondrial superoxide (O2-) levels,PAECs [2]; [8],reduced the IL-1β-dependent increase
same,mitochondrial superoxide levels,PAECs [2]; [9],reversed the hypoxia-induced increases
same,apoptosis (caspase-3/7 activity),PAECs [3]; [8],reduced the IL-1β-dependent increase
same,apoptosis (caspase-3/7 activity),PAECs [3]; [9],reversed the hypoxia-induced increases
same,LGALS8-L transcript,[1],reversed
same,LGALS8-M transcript,[1],not altered
same,"IL-1β-induced expression changes in Cluster 15 members SLC9A3R1, LGALS3",[1],reversed
same,"expression of C15 genes LGALS3, LGALS8, ABCC4, CD47, SLC9A3R1, DAG1",[1]; I-BET762 500 nM,reversed
same,"extent of reversal of C15 genes LGALS3, LGALS8, DAG1, SLC9A3R1",[1]; I-BET762 500 nM,near complete reversal
same,LGALS8-L protein (immunoblot),LGALS8,reversed the IL-1β-induced increase of the L isoform
same,number of genes altered by IL-1β vs vehicle and reversed by drug,PAECs [4],524 genes
same,alteration and reversal of C15 genes including LGALS8,Cluster 15 (C15) genes,not observed
same,LGALS8 in pulmonary arterioles (immunofluorescence),[5]; [10],decreased
same,arteriolar muscularization,[5]; [10],reduced
same,cleaved caspase-3 (CC-3) in pulmonary arterioles,[5]; [10],decreased
same,right ventricular systolic pressure (RVSP),[5]; [10],reduced
same,"left ventricular function (LVPW thickness, LVEF, LVFS; echocardiography)",[5]; I-BET762 vs vehicle,did not exhibit altered left ventricular function
same,heart rate,chronically hypoxic mice; [11],without significant effect
same,"pulmonary vascular LGALS8, including in endothelial cells",chronically hypoxic mice; [11],robustly decreased
same,pulmonary vascular muscularization (α-SMA stain),chronically hypoxic mice; [11],reduced
same,right ventricular systolic pressure (RVSP),chronically hypoxic mice; [11],reduced
same,downstream apoptosis (cleaved caspase-3),"chronically hypoxic mice; hypoxic mice, most notable at early stage (1 week hypoxia)",reduced downstream apoptosis
same,LGALS8 in normoxic mice,"chronically hypoxic mice; normoxic mice, similar dosing, mean±SEM, vehicle 1±0.02, p=NS",1.08±0.03 fold change
"CC(C)C[C@@H](C=O)NC(=O)[C@H](CC(C)C)NC(=O)[C@H](CC(C)C)NC(=O)OCc1ccccc1 [MG132, reference compound] (Cbz-Leu-Leu-Leu-aldehyde)",ISCU protein,ISCU,reversed the hypoxic down-regulation
same,GSTP1 or ISCU glutathionylation,glutathionylated ISCU,without affecting
"COc1cc(/C=C/C(=O)N2CCC=CC2=O)cc(OC)c1OC [piperlongumine, reference compound]",inhibition of GSTP1,[6],reported to inhibit
same,"toxicity to normal, non-transformed cells",[7],minimal toxicity
"rhGal8: recombinant human galectin-8 (R&D Systems 1305-GA-050) (protein, UniProt O00214 1-317, looked up) Galectin-8: MMLSLNNLQNIIYNPVIPFVGTIPDQLDPGTLIVIRGHVPSDADRFQVDLQNGSSMKPRADVAFHFNPRFKRAGCIVCNTLINEKWGREEITYDTPFKREKSFEIVIMVLKDKFQVAVNGKHTLLYGHRIGPEKIDTLGIYGKVNIHSIGFSFSSDLQSTQASSLELTEISRENVPKSGTPQLRLPFAARLNTPMGPGRTVVVKGEVNANAKSFNVDLLAGKSKDIALHLNPRLNIKAFVRNSFLQESWGEEERNITSFPFSPGMYFEMIIYCDVREFKVAVNGVHSLEYKHRFKELSSIDTLEINGDIHLLEVRSW",I-BET-induced attenuation of IL-1β-specific mitochondrial superoxide,PAECs [2]; [12],reduced the ability of I-BET to decrease
same,mitochondrial superoxide,PAECs [2]; [13],no effect
same,I-BET-induced attenuation of IL-1β-specific apoptosis (caspase 3/7),PAECs [3]; [12],reduced the ability of I-BET to decrease
same,apoptosis (caspase 3/7 activity),PAECs [3]; [13],no effect
